Broadly, the Ki is a measure of affinity in units of concentration, obtained from inhibition or displacement.

Sequence of recombinant Mcl-1 (residues 172-327) (Q07820 172-327): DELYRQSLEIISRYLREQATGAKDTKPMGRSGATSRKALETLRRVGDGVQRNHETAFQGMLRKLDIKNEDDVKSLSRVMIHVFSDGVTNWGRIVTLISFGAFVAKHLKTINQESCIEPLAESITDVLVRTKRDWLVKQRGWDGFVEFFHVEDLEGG

The first assay addresses recombinant Mcl-1 (residues 172-327) (Homo sapiens (Human), UniProt Q07820). Put plainly: Bak peptide binding assay, fluorescence polarization anisotropy competition (FITC-Bak), Mcl-1.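 Note: displacement of labeled Bak peptide read by fluorescence anisotropy, 10-point threefold dilutions from 20 µM top dose in 5% DMSO, 90 min incubation at room temperature.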
Settings: not given
With `Cc1cc(OCCCc2cn(CCC(=O)NS(=O)(=O)c3ccccc3)c3cc(Cl)ccc23)cc(C)c1Cl` [Example 37, 3-(6-chloro-3-(3-(4-chloro-3,5-dimethylphenoxy)propyl)-1H-indol-1-yl)-N-(phenylsulfonyl)propanamide], the Ki is 101 to 299 nM.

The same assay, now with this note: Table 3, binned ranges; FITC-Bak peptide 10 nM, Mcl-1 14 nM; read-out: Ki for inhibition of Mcl-1.
With `Cc1cc(OCCCc2cn(CCC(=O)O)c3c(-c4cc[nH]n4)cccc23)cc(C)c1Cl` [Example 35, 3-(3-(3-(4-chloro-3,5-dimethylphenoxy)propyl)-7-(1H-pyrazol-3-yl)-1H-indol-1-yl)propanoic acid], the inhibition constant (Ki) is 101 to 299 nM.
The same measure, in the same setting: to `Cc1cc(OCCCc2cn(CCC(=O)O)c3c(-c4cn[nH]c4)cccc23)cc(C)c1Cl` [Example 36, 3-(3-(3-(4-chloro-3,5-dimethylphenoxy)propyl)-7-(1H-pyrazol-4-yl)-1H-indol-1-yl)propanoic acid] belongs 101 to 299 nM.
Still for that read-out and setting: to `Cc1cc(OCCCc2cn(CCC(=O)NS(=O)(=O)Cc3ccccc3)c3cc(Cl)ccc23)cc(C)c1Cl` [Example 38, N-(benzylsulfonyl)-3-(6-chloro-3-(3-(4-chloro-3,5-dimethylphenoxy)propyl)-1H-indol-1-yl)propanamide] belongs 301 to 500 nM; to `Cc1cc(OCCCc2cn(CCC(=O)NS(=O)(=O)C3CC3)c3cc(Cl)ccc23)cc(C)c1Cl` [Example 39, 3-(6-chloro-3-(3-(4-chloro-3,5-dimethylphenoxy)propyl)-1H-indol-1-yl)-N-(cyclopropylsulfonyl)propanamide], 301 to 500 nM; to `Cc1cc(OCCCc2cn(CCC(=O)NS(=O)(=O)c3ccc(Oc4ccccc4)cc3)c3cc(Cl)ccc23)cc(C)c1Cl` [Example 40, 3-(6-chloro-3-(3-(4-chloro-3,5-dimethylphenoxy)propyl)-1H-indol-1-yl)-N-((4-phenoxyphenyl)sulfonyl)propanamide], 301 to 500 nM.
Still for that read-out and setting: the result for `COc1ccc(Oc2ccc(S(=O)(=O)NC(=O)CCn3cc(CCCOc4cc(C)c(Cl)c(C)c4)c4ccc(Cl)cc43)cc2)cc1` [Example 41, 3-(6-chloro-3-(3-(4-chloro-3,5-dimethylphenoxy)propyl)-1H-indol-1-yl)-N-((4-(4-methoxyphenoxy)phenyl)sulfonyl)propanamide] reads 101 to 299 nM.
With `Cc1cc(OCCCc2c(C)n(CCC(=O)NS(C)(=O)=O)c3cc(Cl)ccc23)cc(C)c1Cl` [Example 46, 3-(6-chloro-3-(3-(4-chloro-3,5-dimethylphenoxy)propyl)-2-methyl-1H-indol-1-yl)-N-(methylsulfonyl)propanamide], the Ki was at most 100 nM.
On the same count and under the same terms, to `Cc1cc(OCCCc2c(C#N)n(CCC(=O)O)c3ccccc23)cc(C)c1Cl` [Example 48, 3-(3-(3-(4-chloro-3,5-dimethylphenoxy)propyl)-2-cyano-1H-indol-1-yl)propanoic acid] belongs 501 to 999 nM; to `Cc1cc(OCCCc2c(C#N)n(CC(=O)NS(C)(=O)=O)c3ccccc23)cc(C)c1Cl` [Example 50, 2-(3-(3-(4-chloro-3,5-dimethylphenoxy)propyl)-2-cyano-1H-indol-1-yl)-N-(methylsulfonyl)acetamide], 1000 to 9990 nM.
As to `Cc1cc(OCCn2cc(CC(=O)O)c3ccccc32)cc(C)c1Cl` [Example 62, 2-(1-(2-(4-chloro-3,5-dimethylphenoxy)ethyl)-1H-indol-3-yl)acetic acid], the inhibitory constant (Ki) was 1000 to 9990 nM.
With `Cc1cc(OCCCc2c(C)n(CC(=O)O)c3c(-c4ccnn4C)cccc23)cc(C)c1Cl` [Example 64, 2-(3-(3-(4-chloro-3,5-dimethylphenoxy)propyl)-2-methyl-7-(1-methyl-1H-pyrazol-5-yl)-1H-indol-1-yl)acetic acid], the inhibition constant (Ki) fell in the range of 101 to 299 nM.
As for `Cc1cc(OCCCc2c(C)n(CC(=O)O)c3c(-c4c(C)noc4C)cccc23)cc(C)c1Cl` [Example 66, 2-(3-(3-(4-chloro-3,5-dimethylphenoxy)propyl)-7-(3,5-dimethylisoxazol-4-yl)-2-methyl-1H-indol-1-yl)acetic acid], the inhibitory constant (Ki) lay within 101 to 299 nM.
For the molecule `Cc1cnccc1-c1cccc2c(CCCOc3cc(C)c(Cl)c(C)c3)c(C)n(CC(=O)O)c12` [Example 67], the inhibitory constant (Ki) lay within 101 to 299 nM.
On to `Cc1cc(OCCCc2c(C)n(CC(=O)O)c3c(-c4cccn4C)cccc23)cc(C)c1Cl` [Example 68, 2-(3-(3-(4-chloro-3,5-dimethylphenoxy)propyl)-2-methyl-7-(1-methyl-1H-pyrrol-2-yl)-1H-indol-1-yl)acetic acid], for which the inhibition constant (Ki) fell in the range of 101 to 299 nM.
For the molecule `Cc1cnccc1-c1cccc2c(CCCOc3cc(C)c(Cl)c(C)c3)c(C)n(CCC(=O)O)c12` [Example 72, 3-(3-(3-(4-chloro-3,5-dimethylphenoxy)propyl)-2-methyl-7-(3-methylpyridin-4-yl)-1H-indol-1-yl)propanoic acid], the Ki was at most 100 nM.
In the case of `Cc1cc(OCCCc2c(C)n(CCC(=O)O)c3c(-c4cccn4C)cccc23)cc(C)c1Cl` [Example 73, 3-(3-(3-(4-chloro-3,5-dimethylphenoxy)propyl)-2-methyl-7-(1-methyl-1H-pyrrol-2-yl)-1H-indol-1-yl)propanoic acid], the inhibitory constant (Ki) was at most 100 nM.
Regarding `Cc1cc(OCCCc2c(C)n(CCC(=O)O)c3c(-c4cccnc4C)cccc23)cc(C)c1Cl` [Example 75, 3-(3-(3-(4-chloro-3,5-dimethylphenoxy)propyl)-2-methyl-7-(2-methylpyridin-3-yl)-1H-indol-1-yl)propanoic acid], the Ki is at most 100 nM.
The same measure, in the same setting: the result for `CCn1nc(C)c(-c2cccc3c(CCCOc4cc(C)c(Cl)c(C)c4)c(C)n(CCC(=O)O)c23)c1C` [Example 77, 3-(3-(3-(4-chloro-3,5-dimethylphenoxy)propyl)-7-(1-ethyl-3,5-dimethyl-1H-pyrazol-4-yl)-2-methyl-1H-indol-1-yl)propanoic acid] reads at most 100 nM; that for `Cc1cc(OCCCc2c(C)n(CCC(=O)O)c3c(-c4c(C)nn(CCN5CCOCC5)c4C)cccc23)cc(C)c1Cl` [Example 79, 3-(3-(3-(4-chloro-3,5-dimethylphenoxy)propyl)-7-(3,5-dimethyl-1-(2-morpholinoethyl)-1H-pyrazol-4-yl)-2-methyl-1H-indol-1-yl)propanoic acid], at most 100 nM.
On the same count and under the same terms, the result for `Cc1cc(OCCCc2c(C)n(CCC(=O)O)c3c(-c4c(C)nn(CCN5CCCC5)c4C)cccc23)cc(C)c1Cl` [Example 80, 3-(3-(3-(4-chloro-3,5-dimethylphenoxy)propyl)-7-(3,5-dimethyl-1-(2-(pyrrolidin-1-yl)ethyl)-1H-pyrazol-4-yl)-2-methyl-1H-indol-1-yl)propanoic acid] reads at most 100 nM; that for `Cc1cc(OCCCc2c(C)n(CCC(=O)NS(C)(=O)=O)c3c(-c4ccnn4C)cccc23)cc(C)c1Cl` [Example 81, 3-(3-(3-(4-chloro-3,5-dimethylphenoxy)propyl)-2-methyl-7-(1-methyl-1H-pyrazol-5-yl)-1H-indol-1-yl)-N-(methylsulfonyl)propanamide], at most 100 nM; that for `Cc1ccncc1-c1cccc2c(CCCOc3cc(C)c(Cl)c(C)c3)c(C)n(CCC(=O)NS(C)(=O)=O)c12` [Example 82, 3-(3-(3-(4-chloro-3,5-dimethylphenoxy)propyl)-2-methyl-7-(4-methylpyridin-3-yl)-1H-indol-1-yl)-N-(methylsulfonyl)propanamide], at most 100 nM.
The same measure, in the same setting: to `Cc1cc(OCCCc2c(C)n(CCC(=O)NS(C)(=O)=O)c3c(-c4cccn4C)cccc23)cc(C)c1Cl` [Example 84, 3-(3-(3-(4-chloro-3,5-dimethylphenoxy)propyl)-2-methyl-7-(1-methyl-1H-pyrrol-2-yl)-1H-indol-1-yl)-N-(methylsulfonyl)propanamide] belongs at most 100 nM; to `Cc1cc(OCCCc2c(C)n(CCC(=O)NS(C)(=O)=O)c3c(-c4c(C)nn(C)c4C)cccc23)cc(C)c1Cl` [Example 85, 3-(3-(3-(4-chloro-3,5-dimethylphenoxy)propyl)-2-methyl-7-(1,3,5-trimethyl-1H-pyrazol-4-yl)-1H-indol-1-yl)-N-(methylsulfonyl)propanamide], at most 100 nM; to `CCn1nc(C)c(-c2cccc3c(CCCOc4cc(C)c(Cl)c(C)c4)c(C)n(CCC(=O)NS(C)(=O)=O)c23)c1C` [Example 86, 3-(3-(3-(4-chloro-3,5-dimethylphenoxy)propyl)-7-(1-ethyl-3,5-dimethyl-1H-pyrazol-4-yl)-2-methyl-1H-indol-1-yl)-N-(methylsulfonyl)propanamide], at most 100 nM.
For `CCn1nc(C)c(-c2cccc3c(CCCOc4cc(C)c(Cl)c(C)c4)c(C)n(CCC(=O)NS(=O)(=O)c4ccccc4)c23)c1C` [Example 87, 3-(3-(3-(4-chloro-3,5-dimethylphenoxy)propyl)-7-(1-ethyl-3,5-dimethyl-1H-pyrazol-4-yl)-2-methyl-1H-indol-1-yl)-N-(phenylsulfonyl)propanamide], the Ki is at most 100 nM.
Same read-out and setting: to `Cc1cc(OCCCc2c(C)n(CCC(=O)NS(=O)(=O)Cc3ccccc3)c3c(-c4c(C)nn(C)c4C)cccc23)cc(C)c1Cl` [Example 88, N-(benzylsulfonyl)-3-(3-(3-(4-chloro-3,5-dimethylphenoxy)propyl)-2-methyl-7-(1,3,5-trimethyl-1H-pyrazol-4-yl)-1H-indol-1-yl)propanamide] belongs at most 100 nM; to `Cc1cc(OCCCc2c(C)n(CCC(=O)NS(=O)(=O)c3ccc4ccccc4c3)c3c(-c4c(C)nn(C)c4C)cccc23)cc(C)c1Cl` [Example 89, 3-(3-(3-(4-chloro-3,5-dimethylphenoxy)propyl)-2-methyl-7-(1,3,5-trimethyl-1H-pyrazol-4-yl)-1H-indol-1-yl)-N-(naphthalen-2-ylsulfonyl)propanamide], at most 100 nM; to `Cc1cc(OCCCc2c(C)n(CCC(=O)NS(=O)(=O)c3ccc(Oc4ccccc4)cc3)c3c(-c4c(C)nn(C)c4C)cccc23)cc(C)c1Cl` [Example 90, 3-(3-(3-(4-chloro-3,5-dimethylphenoxy)propyl)-2-methyl-7-(1,3,5-trimethyl-1H-pyrazol-4-yl)-1H-indol-1-yl)-N-((4-phenoxyphenyl)sulfonyl)propanamide], at most 100 nM.
